Laboratory results: patent US9079866B2, “Flap modulators” (JANSSEN PHARMACEUTICA NV, priority 2013, dated 2015)
Structures can show the parent of a compound that is named as a salt. Where two headings read alike, the source gives them in different places.

Tests used:
[1] = system: leukotriene pathway in human whole blood (LTB4 levels); assay: Human whole blood assay (A23187-stimulated LTB4); format: cell-based; details: Homo sapiens, read-out: LTB4 IC50 1:1
Procedure, shortened: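 Single-replicate data from at least one healthy donor: compound pre-incubated 15 min at 37° Celsius in 1:1 RPMI-diluted heparinised blood, followed by 30 min calcium ionophore A23187 (7 μg/mL) challenge at 37° Celsius. LTB4 in plasma quantified by kit; IC50 via 4-parameter equation.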

[2] = biological target: human FLAP (Homo sapiens (Human), UniProt P20292); assay: FLAP binding assay (HTRF format)
Procedure, shortened: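 Read-out is the HTRF ratio. Each reported figure averages two assay plates on which samples were tested in duplicate.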

[3] = human whole blood diluted 1:1 in RPMI, A23187-stimulated LTB4
[4] = human FLAP wild type, HTRF format, average of two plates, duplicates
[5] = read-out: FLAP Binding wild type HTRF Ki

Sequence of human FLAP (P20292 whole entry): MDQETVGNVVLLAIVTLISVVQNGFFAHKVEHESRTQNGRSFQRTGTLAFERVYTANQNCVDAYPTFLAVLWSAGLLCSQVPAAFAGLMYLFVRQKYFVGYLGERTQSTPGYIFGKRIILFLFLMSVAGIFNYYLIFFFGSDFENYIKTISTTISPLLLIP

Row | SMILES | IC50 [1, 3] [nM] | Ki [2, 4] [nM] | IC50 [1] [nM] | Ki [2, 5] [nM]
1 | C[Si](C)(C)CCOCSc1ccccc1-c1ccc(-c2cnc(N)cn2)c(F)c1 [Example 244, 5-[3-Fluoro-2′-({[2-(trimethylsilyl)ethoxy]methyl}sulfanyl)biphenyl-4-yl]pyrazin-2-amine] |  | 29 | 211 | 
2 | C[Si](C)(C)CCOCS(=O)(=O)c1ccccc1-c1ccc(-c2cnc(N)cn2)c(F)c1 [Example 245, 5-[3-Fluoro-2′-({[2-(trimethylsilyl)ethoxy]methyl}sulfonyl)biphenyl-4-yl]pyrazin-2-amine hydrochloride] |  |  | 233 | 45
3 | C[C@@H]1CNCCN1S(=O)(=O)c1ccccc1-c1ccc(-c2cnc(N)nc2)c(F)c1 [Example 247, 5-(3-Fluoro-2′-{[(2R)-2-methylpiperazin-1-yl]sulfonyl}biphenyl-4-yl)pyrimidin-2-amine] | 197 | 89 |  | 
4 | N#CCCN(C1CC1)S(=O)(=O)c1ccccc1-c1ccc(-c2cnc(N)nc2)c(F)c1 [Example 249, 4′-(2-Aminopyrimidin-5-yl)-N-(2-cyanoethyl)-N-cyclopropyl-3′-fluorobiphenyl-2-sulfonamide] | 94 | 59 |  | 
5 | CC(C)(CO)CNS(=O)(=O)c1ccccc1-c1ccc(-c2cnc(N)nc2)c(F)c1 [Example 251, 4′-(2-Aminopyrimidin-5-yl)-3′-fluoro-N-(3-hydroxy-2,2-dimethylpropyl)biphenyl-2-sulfonamide] | 68 | 5 |  | 
6 | C[C@H]1CNCCN1S(=O)(=O)c1ccccc1-c1ccc(-c2cnc(N)nc2)c(F)c1 [Example 253, 5-(3-Fluoro-2′-{[(2S)-2-methylpiperazin-1-yl]sulfonyl}biphenyl-4-yl)pyrimidin-2-amine] | 191 | 134 |  | 
7 | CN([C@H]1CCCNC1)S(=O)(=O)c1ccccc1-c1ccc(-c2cnc(N)nc2)c(F)c1 [Example 256, 4′-(2-Aminopyrimidin-5-yl)-3′-fluoro-N-methyl-N-[(3S)-piperidin-3-yl]biphenyl-2-sulfonamide] | 73 | 35 |  | 
8 | CN([C@@H]1CCCNC1)S(=O)(=O)c1ccccc1-c1ccc(-c2cnc(N)nc2)c(F)c1 [Example 257, 4′-(2-Aminopyrimidin-5-yl)-3′-fluoro-N-methyl-N-[(3R)-piperidin-3-yl]biphenyl-2-sulfonamide] | 1120 | 154 |  | 
9 | Nc1ncc(-c2ccc(-c3ccccc3S(=O)(=O)N3CCNC[C@@H]3CO)cc2F)cn1 [Example 258, [(2R)-1-{[4′-(2-Aminopyrimidin-5-yl)-3′-fluorobiphenyl-2-yl]sulfonyl}piperazin-2-yl]methanol] | 202 | 243 |  | 
10 | Nc1ncc(-c2ccc(-c3ccccc3S(=O)(=O)N[C@H]3CC[C@H](O)CC3)cc2F)cn1 [Example 262, 4′-(2-Aminopyrimidin-5-yl)-3′-fluoro-N-(trans-4-hydroxycyclohexyl)biphenyl-2-sulfonamide] | 46 | 18 |  | 
11 | Nc1ncc(-c2ccc(-c3ccccc3S(=O)(=O)N[C@H]3CCNC3=O)cc2F)cn1 [Example 263, 4′-(2-Aminopyrimidin-5-yl)-3′-fluoro-N-[(3S)-2-oxopyrrolidin-3-yl]biphenyl-2-sulfonamide] | 207 | 169 |  | 
12 | Nc1ncc(-c2ccc(-c3ccccc3S(=O)(=O)N3CCS(=O)(=O)CC3)cc2F)cn1 [Example 264, 5-{2′-[(1,1-Dioxidothiomorpholin-4-yl)sulfonyl]-3-fluorobiphenyl-4-yl}pyrimidin-2-amine trifluoroacetic salt] | 144 | 28 |  | 
13 | Nc1ncc(-c2ccc(-c3ccccc3S(=O)(=O)N3CC(O)C3)cc2F)cn1 [Example 265, 1-{[4′-(2-Aminopyrimidin-5-yl)-3′-fluorobiphenyl-2-yl]sulfonyl}azetidin-3-ol trifluoroacetic acid salt] | 160 | 45 |  | 
14 | Nc1ncc(-c2ccc(-c3ccccc3S(=O)(=O)N[C@@H]3CCCNC3=O)cc2F)cn1 [Example 266, 4′-(2-Aminopyrimidin-5-yl)-3′-fluoro-N-[(3R)-2-oxopiperidin-3-yl]biphenyl-2-sulfonamide trifluoroacetic acid salt] | 464 |  |  | 184
15 | Nc1ncc(-c2ccc(-c3ccccc3S(=O)(=O)N[C@H]3CCCNC3=O)cc2F)cn1 [Example 267, 4′-(2-Aminopyrimidin-5-yl)-3′-fluoro-N-[(3S)-2-oxopiperidin-3-yl]biphenyl-2-sulfonamide trifluoroacetic acid salt] | 350 |  |  | 154
16 | C[C@@H](NS(=O)(=O)c1ccccc1-c1ccc(-c2cnc(N)nc2)c(F)c1)C(F)(F)F [Example 268, 4′-(2-Aminopyrimidin-5-yl)-3′-fluoro-N-[(1R)-2,2,2-trifluoro-1-methylethyl]biphenyl-2-sulfonamide trifluoroacetic acid salt] | 56 |  |  | 11
17 | CC(C)(C)[C@H](CO)NS(=O)(=O)c1ccccc1-c1ccc(-c2cnc(N)nc2)c(F)c1 [Example 269, 4′-(2-Aminopyrimidin-5-yl)-3′-fluoro-N-[(1R)-1-(hydroxymethyl)-2,2-dimethylpropyl]biphenyl-2-sulfonamide trifluoroacetic acid salt] | 87 |  |  | 15
18 | CC(C)(C)[C@@H](CO)NS(=O)(=O)c1ccccc1-c1ccc(-c2cnc(N)nc2)c(F)c1 [Example 270, 4′-(2-Aminopyrimidin-5-yl)-3′-fluoro-N-[(1S)-1-(hydroxymethyl)-2,2-dimethylpropyl]biphenyl-2-sulfonamide trifluoroacetic acid salt] | 1060 |  |  | 57
19 | CC(C)(O)CNS(=O)(=O)c1ccccc1-c1ccc(-c2cnc(N)nc2)c(F)c1 [Example 272, 4′-(2-Aminopyrimidin-5-yl)-3′-fluoro-N-(2-hydroxy-2-methylpropyl)biphenyl-2-sulfonamide trifluoroacetic acid salt] | 125 |  |  | 32
20 | Nc1ncc(-c2ccc(-c3ccccc3S(=O)(=O)NCCO)cc2F)cn1 [Example 275, 4′-(2-Aminopyrimidin-5-yl)-3′-fluoro-N-(2-hydroxyethyl)biphenyl-2-sulfonamide trifluoroacetic acid salt] | 192 |  |  | 65

Second part, led by results:

Row | IC50 [1, 3] [nM] | Ki [2, 4] [nM] | SMILES | IC50 [1] [nM] | Ki [2, 5] [nM]
21 | 38 | 5 | Nc1cnc(-c2ccc(-c3ccccc3CSc3cc(N)ncn3)cc2F)cn1 [Example 238, 6-(((4′-(5-Aminopyrazin-2-yl)-3′-fluoro-[1,1′-biphenyl]-2-yl)methyl)thio)pyrimidin-4-amine hydrochloride] |  | 
22 | 21 | 2 | Nc1cnc(-c2ccc(-c3ccccc3CSc3ccc(N)nn3)cc2F)cn1 [Example 240, 6-(((4′-(5-Aminopyrazin-2-yl)-3′-fluoro-[1,1′-biphenyl]-2-yl)methyl)thio)pyridazin-3-amine hydrochloride] |  | 
23 | 61 | 15 | Nc1cnc(-c2ccc(-c3ccccc3S(=O)(=O)C3CCS(=O)(=O)CC3)cc2F)cn1 [Example 241, 5-{2′-[(1,1-Dioxidotetrahydro-2H-thiopyran-4-yl)sulfonyl]-3-fluorobiphenyl-4-yl}pyrazin-2-amine] |  | 
24 | 4 | 1 | Nc1cnc(-c2ccc(-c3ccccc3Sc3ccnc(N)n3)cc2F)cn1 [Example 242, 4-{[4′-(5-Aminopyrazin-2-yl)-3′-fluorobiphenyl-2-yl]sulfanyl}pyrimidin-2-amine hydrochloride] |  | 
25 | 120 | 3 | Nc1cnc(-c2ccc(-c3ccccc3CSc3ccncn3)cc2F)cn1 [Example 243, 5-(3-Fluoro-2′-((pyrimidin-4-ylthio)methyl)-[1,1′-biphenyl]-4-yl)pyrazin-2-amine hydrochloride] |  | 
26 | 302 | 199 | CS(=O)(=O)CCCS(=O)(=O)c1ccccc1-c1ccc(-c2cnc(N)cn2)c(F)c1 [Example 246, 5-(3-Fluoro-2′-{[3-(methylsulfonyl)propyl]sulfonyl}biphenyl-4-yl)pyrazin-2-amine hydrochloride] |  | 
27 | 124 | 50 | CC[C@@H](CO)NS(=O)(=O)c1ccccc1-c1ccc(-c2cnc(N)nc2)c(F)c1 [Example 248, 4′-(2-Aminopyrimidin-5-yl)-3′-fluoro-N-[(1S)-1-(hydroxymethyl)propyl]biphenyl-2-sulfonamide] |  | 
28 | 77 | 38 | N#CCCNS(=O)(=O)c1ccccc1-c1ccc(-c2cnc(N)nc2)c(F)c1 [Example 250, 4′-(2-Aminopyrimidin-5-yl)-N-(2-cyanoethyl)-3′-fluorobiphenyl-2-sulfonamide] |  | 
29 | 586 | 80 | Nc1ncc(-c2ccc(-c3ccccc3S(=O)(=O)C3CC3)cc2F)cn1 [Example 254, 5-[2′-(Cyclopropylsulfonyl)-3-fluorobiphenyl-4-yl]pyrimidin-2-amine] |  | 
30 | 75 | 6 | CC(C)N(CCO)S(=O)(=O)c1ccccc1-c1ccc(-c2cnc(N)nc2)c(F)c1 [Example 261, 4′-(2-Aminopyrimidin-5-yl)-3′-fluoro-N-(2-hydroxyethyl)-N-(1-methylethyl)biphenyl-2-sulfonamide] |  | 
31 | 606 | 51 | CC(C)[C@@H](CO)NS(=O)(=O)c1ccccc1-c1ccc(-c2cnc(N)nc2)c(F)c1 [Example 271, 4′-(2-Aminopyrimidin-5-yl)-3′-fluoro-N-[(1S)-1-(hydroxymethyl)-2-methylpropyl]biphenyl-2-sulfonamide trifluoroacetic acid salt] |  | 
32 | 105 | 9 | CC(C)[C@H](CO)NS(=O)(=O)c1ccccc1-c1ccc(-c2cnc(N)nc2)c(F)c1 [Example 273, 4′-(2-Aminopyrimidin-5-yl)-3′-fluoro-N-[(1R)-1-(hydroxymethyl)-2-methylpropyl]biphenyl-2-sulfonamide trifluoroacetic acid salt] |  | 
